# Test results from the supplement of paper PMC10307832.
# Assays:
# Test in all cases: relative viability (nuclei count vs DMSO), 5 days (fraction); higher = more cells survive
# SK-MES-1 = tested on: SK-MES-1
# Method in brief: (§1)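 Relative viability was taken as the ratio of nuclei in treated wells to nuclei in vehicle wells. Lung cancer cell lines in 1536-well plates received compounds by pin tool one day after seeding, either one drug alone or a fixed anchor-drug dose plus five library-drug doses (not always all listed) in √10 steps. Nuclei were counted on 4× images after 5 days of treatment, and values are medians of duplicate plates.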
# COR-L 105 = tested on: COR-L 105
# Method in brief: as §1
# HCC-827 = tested on: HCC-827
# Method in brief: as §1
# HCC-44 = tested on: HCC-44
# Method in brief: as §1
# SW 900 = tested on: SW 900
# Method in brief: as §1
# NCI-H2087 = tested on: NCI-H2087
# Method in brief: as §1
# H3255 = tested on: H3255
# Method in brief: as §1
# NCI-H1793 = tested on: NCI-H1793
# Method in brief: as §1
# NCI-H1975 = tested on: NCI-H1975
# Method in brief: as §1
# NCI-H1915 = tested on: NCI-H1915
# Method in brief: as §1
# NCI-H2023 = tested on: NCI-H2023
# Method in brief: as §1
# LCLC-103H = tested on: LCLC-103H
# Method in brief: as §1
# A-427 = tested on: A-427
# Method in brief: as §1
# LXF-289 = tested on: LXF-289
# Method in brief: as §1
# NCI-H1944 = tested on: NCI-H1944
# Method in brief: as §1
# NCI-H520 = tested on: NCI-H520
# Method in brief: as §1
# SW 1573 = tested on: SW 1573
# Method in brief: as §1
# NCI-H522 = tested on: NCI-H522
# Method in brief: as §1
# LOU-NH91 = tested on: LOU-NH91
# Method in brief: as §1
# NCI-H1993 = tested on: NCI-H1993
# Method in brief: as §1
# NCI-H358 = tested on: NCI-H358
# Method in brief: as §1
# NCI-H2170 = tested on: NCI-H2170
# Method in brief: as §1
smiles,measurement,setting,value
CN1CCN(CCOc2cc(OC3CCOCC3)c3c(Nc4c(Cl)ccc5c4OCO5)ncnc3c2)CC1 [Saracatinib] + Cc1cc(Nc2cc(N3CCN(C)CC3)nc(Sc3ccc(NC(=O)C4CC4)cc3)n2)n[nH]1 [Tozasertib] (partner 0.1 µM),relative viability,SK-MES-1; first compound 0.02 µM,0.868
same,relative viability,SK-MES-1; first compound 0.2 µM,0.836
same,relative viability,SK-MES-1; first compound 0.6325 µM,0.872
same,relative viability,SK-MES-1; first compound 2 µM,0.666
same,relative viability,COR-L 105; first compound 0.02 µM,0.358
same,relative viability,COR-L 105; first compound 0.2 µM,0.323
same,relative viability,COR-L 105; first compound 0.6325 µM,0.309
same,relative viability,COR-L 105; first compound 2 µM,0.282
same,relative viability,HCC-827; first compound 0.02 µM,0.404
same,relative viability,HCC-827; first compound 0.2 µM,0.311
same,relative viability,HCC-827; first compound 0.6325 µM,0.171
same,relative viability,HCC-827; first compound 2 µM,0.11
same,relative viability,HCC-44; first compound 0.02 µM,0.967
same,relative viability,HCC-44; first compound 0.2 µM,0.891
same,relative viability,HCC-44; first compound 0.6325 µM,1.48
same,relative viability,HCC-44; first compound 2 µM,1.05
same,relative viability,SW 900; first compound 0.02 µM,0.546
same,relative viability,SW 900; first compound 0.2 µM,0.533
same,relative viability,SW 900; first compound 0.6325 µM,0.645
same,relative viability,SW 900; first compound 2 µM,0.532
same,relative viability,NCI-H2087; first compound 0.02 µM,0.224
same,relative viability,NCI-H2087; first compound 0.2 µM,0.206
same,relative viability,NCI-H2087; first compound 0.6325 µM,0.258
same,relative viability,NCI-H2087; first compound 2 µM,0.231
same,relative viability,H3255; first compound 0.02 µM,0.621
same,relative viability,H3255; first compound 0.2 µM,0.585
same,relative viability,H3255; first compound 0.6325 µM,0.444
same,relative viability,H3255; first compound 2 µM,0.291
same,relative viability,NCI-H1793; first compound 0.02 µM,0.318
same,relative viability,NCI-H1793; first compound 0.6325 µM,0.209
same,relative viability,NCI-H1793; first compound 2 µM,0.142
same,relative viability,NCI-H1975; first compound 0.02 µM,0.697
same,relative viability,NCI-H1975; first compound 0.2 µM,0.709
same,relative viability,NCI-H1975; first compound 0.6325 µM,0.675
same,relative viability,NCI-H1975; first compound 2 µM,0.33
same,relative viability,NCI-H1915; first compound 0.02 µM,0.432
same,relative viability,NCI-H1915; first compound 0.2 µM,0.382
same,relative viability,NCI-H1915; first compound 0.6325 µM,0.461
same,relative viability,NCI-H1915; first compound 2 µM,0.343
same,relative viability,NCI-H2023; first compound 0.02 µM,0.314
same,relative viability,NCI-H2023; first compound 0.2 µM,0.368
same,relative viability,NCI-H2023; first compound 0.6325 µM,0.268
same,relative viability,NCI-H2023; first compound 2 µM,0.262
same,relative viability,LCLC-103H; first compound 0.02 µM,0.46
same,relative viability,LCLC-103H; first compound 0.2 µM,0.465
same,relative viability,LCLC-103H; first compound 0.6325 µM,0.465
same,relative viability,LCLC-103H; first compound 2 µM,0.454
same,relative viability,A-427; first compound 0.02 µM,0.215
same,relative viability,A-427; first compound 0.2 µM,0.18
same,relative viability,A-427; first compound 0.6325 µM,0.207
same,relative viability,A-427; first compound 2 µM,0.206
same,relative viability,LXF-289; first compound 0.02 µM,0.205
same,relative viability,LXF-289; first compound 0.2 µM,0.183
same,relative viability,LXF-289; first compound 0.6325 µM,0.164
same,relative viability,LXF-289; first compound 2 µM,0.0819
same,relative viability,NCI-H1944; first compound 0.02 µM,0.23
same,relative viability,NCI-H1944; first compound 0.6325 µM,0.227
same,relative viability,NCI-H1944; first compound 2 µM,0.169
same,relative viability,NCI-H520; first compound 0.02 µM,0.407
same,relative viability,NCI-H520; first compound 0.6325 µM,0.383
same,relative viability,NCI-H520; first compound 2 µM,0.314
same,relative viability,SW 1573; first compound 0.02 µM,0.142
same,relative viability,SW 1573; first compound 0.2 µM,0.207
same,relative viability,SW 1573; first compound 0.6325 µM,0.189
same,relative viability,SW 1573; first compound 2 µM,0.188
same,relative viability,NCI-H522; first compound 0.02 µM,0.557
same,relative viability,NCI-H522; first compound 0.6325 µM,0.534
same,relative viability,NCI-H522; first compound 2 µM,0.458
same,relative viability,LOU-NH91; first compound 0.02 µM,0.655
same,relative viability,LOU-NH91; first compound 0.2 µM,0.449
same,relative viability,LOU-NH91; first compound 0.6325 µM,0.476
same,relative viability,LOU-NH91; first compound 2 µM,0.42
same,relative viability,NCI-H1993; first compound 0.02 µM,0.6
same,relative viability,NCI-H1993; first compound 0.2 µM,0.559
same,relative viability,NCI-H1993; first compound 0.6325 µM,0.569
same,relative viability,NCI-H1993; first compound 2 µM,0.576
same,relative viability,NCI-H358; first compound 0.02 µM,0.118
same,relative viability,NCI-H358; first compound 0.2 µM,0.0883
same,relative viability,NCI-H358; first compound 0.6325 µM,0.0859
same,relative viability,NCI-H358; first compound 2 µM,0.0757
same,relative viability,NCI-H2170; first compound 0.02 µM,0.736
same,relative viability,NCI-H2170; first compound 0.2 µM,0.371
same,relative viability,NCI-H2170; first compound 0.6325 µM,0.723
same,relative viability,NCI-H2170; first compound 2 µM,0.429
